Results as given in patent US7754753B2, “Analgesic and anti-inflammatory compositions containing Cox-2-inhibitors” (Wyeth LLC, priority 2000, dated 2010).

Tested on: Male Swiss mice
Experiment: acetic acid-induced writhing test (mouse writhing model)
Format: in vivo
Conditions: for oral A50 value (antinociceptive dose-response): +30 minutes before acetic acid, 95% confidence limits for ibuprofen 17.57-40.58
Protocol: A modification of the acetic acid-induced writhing test (as disclosed in Porreca, F., H. I. Mosberg, J. R. Omnaas, T. F. Burks and A. Cowan in Supraspinal and spinal potency of selective opioid agonists in the mouse writhing test (Journal of Pharmacology and Experimental Therapeutics 240: 890-894, 1987)) was conducted. The mouse writhing model as described is commonly used to investigate analgesic efficacy and potential synergism with combinations of drugs.
Male Swiss mice weighing 25-30 g were obtained from Ace Laboratories. They were each placed in individual rectangular observation boxes and allowed to acclimate for at least 1 hour. A placebo vehicle of 1% Tween 80/water was prepared.
Groups of 8-10 mice each received the test agent or placebo vehicle (in an amount of 0.25 ml/25 grams of body weight) orally via stomach tube. Those mice that received the placebo vehicle composed the control group. After 20, 30, 40 or 60 minutes, each mouse was injected parenterally with a 0.6% acetic acid solution (0.25 ml/25 g body weight).
Percent inhibition of writhing was expressed as: (Means writhes in control group)−(Writhes by individual mouse)×100/(Mean writhes in control group)
A preliminary study was conducted at +30 minutes to establish antinociceptive dose-response curves for ibuprofen (obtained from Sigma Chemical) and celecoxib (manufactured by G.D. Searle & Co. in 200 mg capsules and marketed under the trademark Celebrex®), respectively.
A second group of mice (n=8-10) received […] of ibuprofen followed immediately by the placebo vehicle. At either +20, +40 or +60 minutes following administration, the animals were injected i.p. with 0.6% acetic acid (0.25 ml/25 g body weight) and run in the writhing test.

[1] = dose 20 mg/kg oral, +30 minutes
[2] = dose 40 mg/kg oral, +30 minutes
[3] = dose 80 mg/kg oral, +30 minutes

Compound | effect of celecoxib on ibuprofen analgesia in words (celecoxib 20 mg/kg given with ibuprofen 29 mg/kg, +20 to +60 min) | antinociceptive activity in words (celecoxib 20 mg/kg oral alone) | Mean % inhibition + s.e.m. (writhing) [1] | Mean % inhibition + s.e.m. (writhing) [2] | Mean % inhibition + s.e.m. (writhing) [3] | oral A50 value (antinociceptive dose-response) (oral) | Mean % inhibition + s.e.m. (writhing) (time 20 min, ibuprofen 29 mg/kg followed immediately by celecoxib 20 mg/kg or placebo vehicle, oral) | Mean % inhibition + s.e.m. (writhing) (time 40 min, ibuprofen 29 mg/kg followed immediately by celecoxib 20 mg/kg or placebo vehicle, oral) | Mean % inhibition + s.e.m. (writhing) (time 60 min, ibuprofen 29 mg/kg followed immediately by celecoxib 20 mg/kg or placebo vehicle, oral)
Cc1ccc(-c2cc(C(F)(F)F)nn2-c2ccc(S(N)(=O)=O)cc2)cc1 [Celecoxib, 4-[5-(4-methylphenyl)-3-(trifluoromethyl)-1H-pyrazol-1-yl]benzenesulfonamide] | potentiated the ibuprofen through faster onset and duration of action | essentially inactive | 7.5 ± 3.38% | 21.7 ± 4.17% | 28.3 ± 8.34% | > 80 mg/kg |  |  | 
CC(C)Cc1ccc(C(C)C(=O)O)cc1 (stereo not shown) [Ibuprofen, ibuprofen] |  |  | 38.7 ± 11.2% | 59.4 ± 9.58% | 74.0 ± 4.68% | 29.07 mg/kg | 36.4 ± 3.2% | 14.1 ± 6.2% | 27.3 ± 8.2%
